Data from PubChem BioAssay (NCI).
Where “and” joins values, the source holds several entries; their conditions need not be identical. Equal values may be shown once.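 Cells were grown in 96-well plates and exposed to each compound for 48 hours at five concentrations; endpoints were interpolated linearly between bracketing concentrations, or set to the highest concentration if not reached. Abbreviation: GI50, concentration required for 50% inhibition of growth. TGI denotes the concentration required for complete inhibition of growth.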

Experiments:
Assay in all cases: growth of human tumour cells (NCI), 48 h
MALME-3M melanoma = system: MALME-3M melanoma
SF-268 CNS = system: SF-268 CNS
K-562 leukemia = system: K-562 leukemia
DU-145 prostate = system: DU-145 prostate
HL-60(TB) leukemia = system: HL-60(TB) leukemia
KM12 colon = system: KM12 colon
CAKI-1 renal = system: CAKI-1 renal
SK-MEL-2 melanoma = system: SK-MEL-2 melanoma
CCRF-CEM leukemia = system: CCRF-CEM leukemia
SW-620 colon = system: SW-620 colon

| SMILES | GI50 (MALME-3M melanoma) | TGI (MALME-3M melanoma) | GI50 (SF-268 CNS) | TGI (SF-268 CNS) | GI50 (K-562 leukemia) | TGI (K-562 leukemia) | GI50 (DU-145 prostate) | TGI (DU-145 prostate) | GI50 (HL-60(TB) leukemia) | TGI (HL-60(TB) leukemia) | GI50 (KM12 colon) | TGI (KM12 colon) | GI50 (CAKI-1 renal) | TGI (CAKI-1 renal) | GI50 (SK-MEL-2 melanoma) | TGI (SK-MEL-2 melanoma) | GI50 (CCRF-CEM leukemia) | TGI (CCRF-CEM leukemia) | GI50 (SW-620 colon) | TGI (SW-620 colon) |
| --- | --- | --- | --- | --- | --- | --- | --- | --- | --- | --- | --- | --- | --- | --- | --- | --- | --- | --- | --- | --- |
| N=C1C(c2nc(-c3ccc(Br)cc3)cs2)=C(O)CN1Cc1cccnc1 | 14.6 µM | > 100 µM | 31.6 µM | > 100 µM | 8.17 µM | > 100 µM | 17.4 µM | 63.1 µM | 3.42 µM | 20.2 µM | 18.9 µM | > 100 µM | 35 µM | > 100 µM | 11.2 µM | 80.5 µM | 4.28 µM | 65.8 µM | 4.75 µM | 26.7 µM |
| C=C1CC2(OC1=O)C(=O)N(CCCCCCCN1C(=O)C3(CC(=C)C(=O)O3)c3ccccc31)c1ccccc12 (stereo not given) | 0.955 µM | 2.09 µM | 3.97 µM | 12 µM | 0.953 µM | 6.06 µM | 2.89 µM | 9.49 µM | 0.992 µM | 3.21 µM | 3.39 µM | 11.6 µM | 1.4 µM | 5.96 µM | 7.51 µM | 17.2 µM | 0.896 µM | 6.42 µM | 0.938 µM | 2.21 µM |
| COc1nc(N(C)O)nc(N(C)O)n1 | 2.22 µM | 24 µM | 1.16 µM | > 100 µM | 2.94 µM | > 100 µM | 0.858 µM | > 100 µM | 1.68 µM | 9.1 µM | 2.99 µM | > 100 µM | 0.491 µM | 17.3 µM | 6.1 µM | > 100 µM | 0.624 µM | > 100 µM | 2.57 µM | > 100 µM |
| C=C1C(=O)O[C@H]2[C@H]1CC/C(COC(=O)c1cc3cc(F)ccc3[nH]1)=C\CC[C@@]1(C)O[C@@H]21 | 1.67 µM | 3.53 µM | 1.62 µM | 3.3 µM | 2.24 µM | 12.1 µM | 1.67 µM | 3.19 µM | 2.07 µM | 9.27 µM | 1.98 µM | 5.06 µM | 1.2 µM | 2.62 µM | 1.95 µM | 4.27 µM | 0.919 µM | 6.52 µM | 1.43 µM | 4.09 µM |
| N#Cc1c(-c2nc3ccccc3s2)c(=O)oc2cc(O)ccc12 | – | 95.9 µM | – | > 100 µM | – | > 100 µM | – | > 100 µM | – | 66.5 µM | – | 73 µM | – | 85.6 µM | – | > 100 µM | – | > 100 µM | – | > 100 µM |
| O=C(Nc1ccc(N2CCNCC2)cc1)c1[nH]ncc1Nc1ncnc2sc3c(c12)CCC3 | 0.121 µM | 1.77 µM | 0.89 µM | 2.76 µM | 0.115 µM | 0.472 µM | 0.302 µM | 1.19 µM | 1.2 µM | 3.28 µM | 0.219 µM | 1.33 µM | 0.148 µM | 1.6 µM | 1.27 µM | 3.01 µM | 0.222 µM | 1.13 µM | 0.157 µM | 0.756 µM |
| O=P(O)(CCP(=O)(O)c1ccccc1)c1ccccc1 | – | > 100 µM | – | > 100 µM | – | > 100 µM | – | > 100 µM | – | > 100 µM | – | > 100 µM | – | > 100 µM | – | > 100 µM | – | > 100 µM | – | > 100 µM |
| CC(=O)Nc1ccc2c(c1)c(C1=C(c3cn(C)c4ccccc34)C(=O)NC1=O)cn2C | > 9.93 µM | > 25 µM | 1.41 µM | > 25 µM | 0.926 µM | > 25 µM | 4.02 µM | > 25 µM | 0.913 µM | 4.9 µM | 1.16 µM | > 25 µM | 1.07 µM | 24.3 µM | 0.94 µM | 5.74 µM | 0.991 µM | > 25 µM | 1.02 µM | > 25 µM |
| Cc1ncc(CN=Cc2ccc(Cl)cc2)c(N)n1 | – | > 100 µM | – | > 100 µM | – | > 100 µM | – | > 100 µM | – | > 100 µM | – | > 100 µM | – | > 100 µM | – | > 100 µM | – | > 100 µM | – | > 100 µM |
| CNc1ccc2nc3ccc(=[N+](C)C)cc-3sc2c1 | 0.335 µM and 0.482 µM | 2.36 µM and 1.97 µM | 2.28 µM and 0.465 µM | 18.7 µM and 8.7 µM | 0.513 µM and 0.756 µM | 14.1 µM and 47.4 µM | 3.6 µM and 2.76 µM | 16.1 µM and 11.9 µM | 0.236 µM and 0.343 µM | 1.41 µM and 3.39 µM | 1.15 µM and 0.651 µM | 17.6 µM and 11.6 µM | 1.28 µM and 1.4 µM | 9.17 µM and 6.02 µM | 1.12 µM and 1.07 µM | 3.81 µM and 5.25 µM | 0.432 µM and 0.489 µM | 17 µM and > 100 µM | 1.63 µM and 0.424 µM | 12.5 µM and 10.5 µM |
| COc1cc([C@H]2c3cc4c(cc3O[C@@]3(O)COC(=O)[C@@H]23)OCO4)cc(OC)c1OC | – | > 100 µM | – | > 100 µM | – | > 100 µM | – | > 100 µM | – | > 100 µM | – | > 100 µM | – | > 100 µM | – | > 100 µM | – | > 100 µM | – | > 100 µM |
| COc1cc(O)c([C@@H]2C[C@H](CCc3ccc(O)cc3)O[C@H](c3ccc(O)cc3)C2)c(O)c1C(=O)/C=C/c1ccc(O)cc1 | 3.39 µM | > 30.8 µM | 2.86 µM | 24.4 µM | 2.32 µM | 6.24 µM | 3.15 µM | 10.1 µM | 2.13 µM | 5.2 µM | 9.83 µM | > 35 µM | 5.76 µM | 18.3 µM | 2.38 µM | 6.86 µM | 2.32 µM | 7.36 µM | 2.24 µM | 6.12 µM |
| CCOC(=O)c1ccc(NC(=O)N2CC(C)OC(C)C2)cc1 (stereo not given) | > 100 µM | > 100 µM | > 100 µM | > 100 µM | > 100 µM | > 100 µM | > 100 µM | > 100 µM | > 100 µM | > 100 µM | > 100 µM | > 100 µM | > 100 µM | > 100 µM | > 100 µM | > 100 µM | > 100 µM | > 100 µM | > 100 µM | > 100 µM |
